# Assays:
# [1] = Perfume stabilization effect (photostabilizer, sunlight exposure, judgement by perfumier); set-up: key to Sunlight exposure (80 MJ) Smell evaluation / Sunlight exposure (80 MJ) evaluation: A: No change; B: No almost change; C: Yes change
# Experimental: Next, the photostabilization effect for each perfume was studied by the following evaluation formulation.
# Each test sample was prepared. Change of smell of sample exposed to sunlight (80 MJ) was observed (judgement by perfumier).
# [2] = Drug stabilization effect (photostabilizer, sunlight exposure); set-up: key to Sunlight exposure (80 MJ) Appearance: A: No change; B: No almost change; C: Yes change; conditions: photostabilizer 0.05, amounts wt %
# Experimental: Next, the photo stabilization effect and changes in appearance in drug compositions were studied according to the following evaluation formulation.
# Each test sample was prepared. Appearance changes of the samples exposed to sunlight (80 MJ) was observed (visual evaluation). Also, residual yield was measured by liquid chromatography.
# [3] = Colorant stabilization effect (photostabilizer, sunlight exposure); set-up: key to Sunlight exposure (80 MJ) Appearance: A: No change; B: No almost change; C: Yes change; key to Sunlight exposure (80 MJ) ΔE: ΔE color difference (Lab) vs. color before sunlight exposure; conditions: photostabilizer 0.05 wt %
# Experimental: First of all, the photostabilization effect and appearance change of a composition in each pigment were studied by the following evaluation formulation.
# Each test sample was prepared. Observation of appearance change (visual evaluation) and measurement of color difference (ΔE) were carried out in samples exposed to sunlight exposure (around 80 MJ).
# Color difference was measured by Lab coordinate system with spectrophotometer. Color difference was calculated on the basis of the color before sunlight exposure. Namely, from measured value (L1,a1,b1) before sunlight exposure, color difference (ΔE) was calculated by following formula.
# [4] = Base perfume Fruity 0.03 wt %, photostabilizer 0.1 wt %
# [5] = Base perfume Muguet 0.03 wt %, photostabilizer 0.05 wt %
# [6] = Base perfume Rose 0.03 wt %, photostabilizer 0.05 wt %
# [7] = Base perfume Spicy 0.03 wt %, photostabilizer 0.2 wt %
# [8] = Base perfume Woody 0.03 wt %, photostabilizer 0.1 wt %
# [9] = Natural perfume Jasmine oil 0.03 wt %, photostabilizer 0.05 wt %
# [10] = Natural perfume Lavender oil 0.03 wt %, photostabilizer 0.1 wt %
# [11] = Natural perfume Neroli oil 0.03 wt %, photostabilizer 0.1 wt %
# [12] = Natural perfume Rose oil 0.03 wt %, photostabilizer 0.05 wt %
# [13] = Natural perfume Ylang ylang oil 0.03 wt %, photostabilizer 0.2 wt %
# [14] = Synthetic perfume Citral 0.03 wt %, photostabilizer 0.1 wt %
# [15] = Synthetic perfume Limonene 0.03 wt %, photostabilizer 0.05 wt %
# [16] = Synthetic perfume Linalool 0.03 wt %, photostabilizer 0.05 wt %
# [17] = Synthetic perfume Linalyl acetate 0.03 wt %, photostabilizer 0.1 wt %
# [18] = Synthetic perfume Rose oxide 0.03 wt %, photostabilizer 0.2 wt %
# [19] = drug 2-o-α-α-glucopyranosyl-L-ascorbic acid 2.0
# [20] = drug Dibutylhydroxytoluene 0.01
# [21] = drug Dipotassium glycyrrhizinate 0.05
# [22] = drug L-ascorbic acid 2-(dl-α-tocopheryl hydrogen phosphate) potassium salt 0.01
# [23] = Red No. 106 0.00001 wt % + Yellow No. 5 0.0001 wt %
# [24] = Red No. 106 0.00001 wt % + Yellow No. 203 0.0001 wt %
# [25] = Red No. 213 0.00001 wt % + Blue No. 1 0.00001 wt %
# [26] = Red No. 227 0.0001 wt % + Yellow No. 5 0.0001 wt %
# [27] = Red No. 227 0.0001 wt % + Yellow No. 203 0.0001 wt %
# [28] = Red No. 401 0.0001 wt % + Blue No. 1 0.00001 wt %
# [29] = Red No. 401 0.0001 wt % + Green No. 3 0.00001 wt %
# [30] = Yellow No. 203 0.0001 wt % + Yellow No. 5 0.0001 wt %
compound,measurement,setting,value
"COc1ccc(C(=O)CC(=O)c2ccc(C(C)(C)C)cc2)cc1 [4-tert-Butyl-4′-methoxy-di-benzoylmethane, reference compound]",Sunlight exposure (80 MJ) Smell evaluation,[1]; [4],B
same,Sunlight exposure (80 MJ) Smell evaluation,[1]; [5],B
same,Sunlight exposure (80 MJ) Smell evaluation,[1]; [6],B
same,Sunlight exposure (80 MJ) Smell evaluation,[1]; [7],B
same,Sunlight exposure (80 MJ) Smell evaluation,[1]; [8],B
same,Sunlight exposure (80 MJ) Smell evaluation,[1]; [9],B
same,Sunlight exposure (80 MJ) Smell evaluation,[1]; [10],B
same,Sunlight exposure (80 MJ) Smell evaluation,[1]; [11],B
same,Sunlight exposure (80 MJ) Smell evaluation,[1]; [12],B
same,Sunlight exposure (80 MJ) Smell evaluation,[1]; [13],B
same,Sunlight exposure (80 MJ) Smell evaluation,[1]; [14],B
same,Sunlight exposure (80 MJ) Smell evaluation,[1]; [15],B
same,Sunlight exposure (80 MJ) Smell evaluation,[1]; [16],B
same,Sunlight exposure (80 MJ) Smell evaluation,[1]; [17],B
same,Sunlight exposure (80 MJ) Smell evaluation,[1]; [18],B
same,Sunlight exposure (80 MJ) Appearance,[2]; [19],B
same,Sunlight exposure (80 MJ) Residual yield [%],[2]; [19],97.0%
same,Sunlight exposure (80 MJ) Appearance,[2]; [20],B
same,Sunlight exposure (80 MJ) Residual yield [%],[2]; [20],95.2%
same,Sunlight exposure (80 MJ) Appearance,[2]; [21],B
same,Sunlight exposure (80 MJ) Residual yield [%],[2]; [21],96.6%
same,Sunlight exposure (80 MJ) Appearance,[2]; [22],B
same,Sunlight exposure (80 MJ) Residual yield [%],[2]; [22],94.5%
same,Sunlight exposure (80 MJ) Appearance,[2]; drug Salicylic acid 0.1,B
same,Sunlight exposure (80 MJ) Residual yield [%],[2]; drug Salicylic acid 0.1,97.2%
same,Sunlight exposure (80 MJ) Appearance,[3]; Blue No. 1 0.0001 wt %,B
same,Sunlight exposure (80 MJ) ΔE,[3]; Blue No. 1 0.0001 wt %,1.49
same,Sunlight exposure (80 MJ) Appearance,[3]; Green No. 3 0.0001 wt %,B
same,Sunlight exposure (80 MJ) ΔE,[3]; Green No. 3 0.0001 wt %,0.62
same,Sunlight exposure (80 MJ) Appearance,[3]; [23],B
same,Sunlight exposure (80 MJ) ΔE,[3]; [23],0.92
same,Sunlight exposure (80 MJ) Appearance,[3]; [24],B
same,Sunlight exposure (80 MJ) ΔE,[3]; [24],1.02
same,Sunlight exposure (80 MJ) Appearance,[3]; Red No. 106 0.0001 wt %,B
same,Sunlight exposure (80 MJ) ΔE,[3]; Red No. 106 0.0001 wt %,1.02
same,Sunlight exposure (80 MJ) Appearance,[3]; [25],B
same,Sunlight exposure (80 MJ) ΔE,[3]; [25],1.17
same,Sunlight exposure (80 MJ) Appearance,[3]; Red No. 213 0.0001 wt %,B
same,Sunlight exposure (80 MJ) ΔE,[3]; Red No. 213 0.0001 wt %,1.02
same,Sunlight exposure (80 MJ) Appearance,[3]; [26],B
same,Sunlight exposure (80 MJ) ΔE,[3]; [26],0.80
same,Sunlight exposure (80 MJ) Appearance,[3]; [27],B
same,Sunlight exposure (80 MJ) ΔE,[3]; [27],1.12
same,Sunlight exposure (80 MJ) Appearance,[3]; Red No. 227 0.0001 wt %,B
same,Sunlight exposure (80 MJ) ΔE,[3]; Red No. 227 0.0001 wt %,0.95
same,Sunlight exposure (80 MJ) Appearance,[3]; [28],B
same,Sunlight exposure (80 MJ) ΔE,[3]; [28],0.93
same,Sunlight exposure (80 MJ) Appearance,[3]; [29],B
same,Sunlight exposure (80 MJ) ΔE,[3]; [29],0.99
same,Sunlight exposure (80 MJ) Appearance,[3]; Red No. 401 0.001 wt %,B
same,Sunlight exposure (80 MJ) ΔE,[3]; Red No. 401 0.001 wt %,1.02
same,Sunlight exposure (80 MJ) Appearance,[3]; Yellow No. 5 0.001 wt %,B
same,Sunlight exposure (80 MJ) ΔE,[3]; Yellow No. 5 0.001 wt %,0.88
same,Sunlight exposure (80 MJ) Appearance,[3]; [30],A
same,Sunlight exposure (80 MJ) ΔE,[3]; [30],0.48
same,Sunlight exposure (80 MJ) Appearance,[3]; Yellow No. 203 0.001 wt %,B
same,Sunlight exposure (80 MJ) ΔE,[3]; Yellow No. 203 0.001 wt %,0.68
"CCCCCCCCOC(=O)C=Cc1ccc(OC)cc1 [Octyl p-methoxycinnamate, reference compound]",Sunlight exposure (80 MJ) Smell evaluation,[1]; [4],C
same,Sunlight exposure (80 MJ) Smell evaluation,[1]; [5],C
same,Sunlight exposure (80 MJ) Smell evaluation,[1]; [6],C
same,Sunlight exposure (80 MJ) Smell evaluation,[1]; [7],C
same,Sunlight exposure (80 MJ) Smell evaluation,[1]; [8],C
same,Sunlight exposure (80 MJ) Smell evaluation,[1]; [9],C
same,Sunlight exposure (80 MJ) Smell evaluation,[1]; [10],C
same,Sunlight exposure (80 MJ) Smell evaluation,[1]; [11],C
same,Sunlight exposure (80 MJ) Smell evaluation,[1]; [12],C
same,Sunlight exposure (80 MJ) Smell evaluation,[1]; [13],C
same,Sunlight exposure (80 MJ) Smell evaluation,[1]; [14],C
same,Sunlight exposure (80 MJ) Smell evaluation,[1]; [15],C
same,Sunlight exposure (80 MJ) Smell evaluation,[1]; [16],C
same,Sunlight exposure (80 MJ) Smell evaluation,[1]; [17],C
same,Sunlight exposure (80 MJ) Smell evaluation,[1]; [18],C
same,Sunlight exposure (80 MJ) Appearance,[2]; [19],C
same,Sunlight exposure (80 MJ) Residual yield [%],[2]; [19],92.3%
same,Sunlight exposure (80 MJ) Appearance,[2]; [20],C
same,Sunlight exposure (80 MJ) Residual yield [%],[2]; [20],71.7%
same,Sunlight exposure (80 MJ) Appearance,[2]; [21],C
same,Sunlight exposure (80 MJ) Residual yield [%],[2]; [21],90.8%
same,Sunlight exposure (80 MJ) Appearance,[2]; [22],C
same,Sunlight exposure (80 MJ) Residual yield [%],[2]; [22],82.1%
same,Sunlight exposure (80 MJ) Appearance,[2]; drug Salicylic acid 0.1,C
same,Sunlight exposure (80 MJ) Residual yield [%],[2]; drug Salicylic acid 0.1,92.2%
same,Sunlight exposure (80 MJ) Appearance,[3]; Blue No. 1 0.0001 wt %,C
same,Sunlight exposure (80 MJ) ΔE,[3]; Blue No. 1 0.0001 wt %,5.23
same,Sunlight exposure (80 MJ) Appearance,[3]; Green No. 3 0.0001 wt %,C
same,Sunlight exposure (80 MJ) ΔE,[3]; Green No. 3 0.0001 wt %,1.64
same,Sunlight exposure (80 MJ) Appearance,[3]; Red No. 106 0.0001 wt %,C
same,Sunlight exposure (80 MJ) ΔE,[3]; Red No. 106 0.0001 wt %,1.95
same,Sunlight exposure (80 MJ) Appearance,[3]; Red No. 213 0.0001 wt %,C
same,Sunlight exposure (80 MJ) ΔE,[3]; Red No. 213 0.0001 wt %,2.55
same,Sunlight exposure (80 MJ) Appearance,[3]; Red No. 227 0.0001 wt %,C
same,Sunlight exposure (80 MJ) ΔE,[3]; Red No. 227 0.0001 wt %,1.22
same,Sunlight exposure (80 MJ) Appearance,[3]; Red No. 401 0.001 wt %,C
same,Sunlight exposure (80 MJ) ΔE,[3]; Red No. 401 0.001 wt %,4.76
same,Sunlight exposure (80 MJ) Appearance,[3]; Yellow No. 5 0.001 wt %,C
same,Sunlight exposure (80 MJ) ΔE,[3]; Yellow No. 5 0.001 wt %,1.56
same,Sunlight exposure (80 MJ) Appearance,[3]; Yellow No. 203 0.001 wt %,C
same,Sunlight exposure (80 MJ) ΔE,[3]; Yellow No. 203 0.001 wt %,2.43

# Source: US6395896B2, “Pyridazine derivatives, manufacturing method and related composition” (Shiseido Co., Ltd., priority 1999, dated 2002)
